Experimental data as given in US7871635B2, “Use of compound that inactivates protein kinase A in a composition containing a cosmetically acceptable medium for lightening the skin” (Societe d'Exploitation de Produits pour les Industries …, priority 2002, dated 2011).

Legend:
Adenylate cyclase = experiment: Study of adenylate cyclase activation (ATP to cAMP, radioimmunological assay); assay type: biochemical, rat; conditions: 1 mg/ml
Procedure: The influence of N-undecylenoylphenylalanine, kojic acid and arbutin on the conversion of ATP into cAMP was compared via a radioimmunological assay.
Adenylate cyclase, which converts ATP into cAMP, is extracted from rat brains via the method described in “Salamon Y., Londos C. and Rodbell M.; Anal. Biochem., 58, 1974, 541-548”; it is then activated with 10 μM of forskolin.
They are each tested separately at a concentration of 1 mg/ml. Sodium hydroxide has no effect on the parameter studied.
The activated enzyme is incubated, in the presence or absence of these products, and in the presence of 0.5 mM of ATP, for 30 minutes at 30° C.
Control cultures are incubated, in the absence of product, and in the presence of ATP. Each test is performed in triplicate.
After incubation for 30 minutes, the amount of cAMP produced is evaluated via a radioimmunological assay performed using a commercial kit; the radioactivity is measured with a scintillation counter (Topcount, Packard), a small radioactivity count reflecting small activation of adenylate cyclase.
The results given in the table below are the means of the three tests performed for each of the products. They are expressed as a percentage of enzymatic activity relative to the control group and as a percentage of inhibition.

[1] = system: Pigmented human epidermides (phototype IV); experiment: Chromametric measurement of the epidermal pigmentation in reconstructed human epidermides; assay type: cell-based; conditions: for L* (% of the control group) / a* (% of the control group) / b* (% of the control group) / b* / a* / L*: topical, 4 days; for b*: control 7.54 ± 0.00 AU; for a*: control 10.23 ± 0.51 AU; for L*: control 41.38 ± 0.69 AU
Procedure: Pigmented human epidermides (phototype IV) supplied by Skinethic, of 0.63 cm^2, are reconstructed from a coculture of normal human keratinocytes (skin of the forearm, donor, 2nd passage) and from normal human melanocytes (skin of the forearm, donor of phototype IV, 3rd passage). The keratinocyte/melanocyte ratio is 10:1. The cocultures are inoculated onto inert polycarbonate filters. They are cultured for 10 days in the medium supplied by Skinethic, consisting of MCDB 153 medium supplemented with 5 μg/ml of insulin, 1.5 mM of calcium and growth factors. […] The epidermides are cultured in 6-well plates containing 1 ml of the medium described above. […] The application is performed every day for 4 consecutive days. The incubation medium of the reconstructed epidermides is renewed every day for 4 consecutive days. Control epidermides are treated with a formulation free of active principle. Each test is performed in duplicate. Three days after the final topical application, the color of the epidermides is evaluated using a chromameter (Minolta) by measuring the following parameters L*, a* and b*: • L* is the lightness index. A depigmenting product should increase this parameter; • a* represents the color spectrum from […]. A depigmenting product should reduce this parameter; • b*: represents the color spectrum from […]. A depigmenting product should reduce this parameter. The results are expressed in arbitrary units (AU) of each parameter and as a percentage of the control group.

Protein kinase A = experiment: Study of protein kinase A activity (phosphorylation of histone H1); assay type: biochemical, bovine; conditions: 1 mg/ml
Procedure: The influence of N-undecylenoylphenylalanine, kojic acid and arbutin on the phosphorylation of […] with protein kinase A (PK A) was compared. Protein kinase A is extracted from bovine brains via the method described in: “[…]., Sano M., Hayashi K., Inoue T., Naito […]. Biol. Chem., 265, 1990, 5267-5272”. […] Sodium hydroxide has no effect on the parameter studied. […] Control cultures are incubated, in the absence of product, and in the presence of radioactive ATP and histone H1. Each test is performed in triplicate. […] The results given in the table below are the means of the three tests performed for each of the products. They are expressed as a percentage of enzymatic activity relative to the control group and as a percentage of inhibition.

MC1R receptors = target: T1, MC1R receptors (Mus musculus, UniProt Q01727); experiment: Affinity study on MC1R receptors ([125I]NDP-α-MSH binding); conditions: for Activity relative to the control (percentage of specific binding): [125I]NDP-α-MSH 0.05 nM, 90 minutes at 22° C.
T1 construct: isolated from cell membranes of mouse melanocytes of the B16/F1 line; endogenous in cells; host or cells: B16/F1 mouse melanocyte (melanoma) cell membranes
Procedure: MC1R receptors are isolated from cell membranes of mouse melanocytes of the B16/F1 line via the method described in: Siegrist W., Oestreicher M., Stutz M., Girard J. and […]., 8, 1988, 323-343”. […] Sodium hydroxide has no effect on the parameter studied. The MC1R receptors are incubated, in the presence or absence of these products, with an iodine-125 labeled radioactive ligand, the […]-α-melanocyte […] hormone [^125I]NDP-α-MSH at a concentration of 0.05 nM, for 90 minutes at 22° C. Control cultures are incubated, in the absence of product, and in the presence of the radioactive ligand. Each test is performed in triplicate. After incubation for 90 minutes, the cell membranes are rapidly filtered and the filters are washed several times with cold buffer. The amount of radioactive ligand bound to the MC1R receptors is measured using a scintillation counter (Topcount, Packard). The results given in the table below are the means of the three tests performed for each of the products. They are expressed as a percentage of specific binding relative to the control group and as a percentage of inhibition of this binding.

[2] = system: B16/F1 melanocyte cultures; experiment: Extracellular melanin content in B16/F1 melanocyte cultures; assay type: cell-based, mouse; conditions: 72 hours; for Extracellular melanin: control 43 ± 11 μg/ml
Procedure: Mouse melanocytes of the B16/F1 line are inoculated in 96-well culture plates at a density of 1500 cells/well. […] The cells are used at 60% of confluence, i.e. 4 days after inoculation. The MCM medium has the following composition: […] N-Undecylenoylphenylalanine is diluted to 4 mg/ml in decinormal aqueous sodium hydroxide solution. It is tested at 40 μg/ml in the MCM medium. Sodium hydroxide has no effect on the parameters analyzed. […] Given its toxicity, it is not tested at 40 μg/ml. […] Control cultures are incubated, in the absence of product, in the MCM medium. These control cultures are prepared on each culture plate. Each test is performed six times. After incubation for 72 hours, the incubation media of the cells (n=6) are taken up and stored at -80° C. until the time of evaluation of the effects. The extracellular melanin is quantified by spectrophotometry at 450 nm. A melanin calibration range is prepared in parallel. The results are expressed as μg/ml of extracellular […] a percentage of inhibition relative to the control group.

T1 sequence (Q01727 whole entry): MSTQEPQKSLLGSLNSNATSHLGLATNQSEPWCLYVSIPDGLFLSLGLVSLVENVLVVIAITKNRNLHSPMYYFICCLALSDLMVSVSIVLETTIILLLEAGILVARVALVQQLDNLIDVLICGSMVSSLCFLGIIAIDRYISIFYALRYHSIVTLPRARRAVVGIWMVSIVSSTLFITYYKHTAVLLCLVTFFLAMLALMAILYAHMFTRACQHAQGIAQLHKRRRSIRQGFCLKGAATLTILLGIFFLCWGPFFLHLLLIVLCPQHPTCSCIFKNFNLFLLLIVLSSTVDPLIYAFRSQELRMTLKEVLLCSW

For `OC[C@H]1O[C@@H](Oc2ccc(O)cc2)[C@H](O)[C@@H](O)[C@@H]1O` [Arbutin, arbutin], the “Inhibition of adenylate cyclase activity” value (Adenylate cyclase) was 0%, the “Enzymatic activity relative to the control (adenylate cyclase)” value (Adenylate cyclase; forskolin 10 μM, ATP 0.5 mM, 30 minutes at 30° C.) was 109.7 ± 4.6% and the “Inhibition of adenylate cyclase activity” value (Adenylate cyclase; listed as arbutin) was “no effect”. The “L* (% of the control group)” value ([1]; formulated at 1% (w/v)) was “+2%”, the “a* (% of the control group)” value ([1]; formulated at 1% (w/v)) was −2% and the “b* (% of the control group)” value ([1]; formulated at 1% (w/v)) was “+1%”. The “b*” value ([1]; formulated at 1% (w/v)) was 7.64 ± 0.19 AU, the “a*” value ([1]; formulated at 1% (w/v)) was 10.02 ± 0.13 AU and the “L*” value ([1]; formulated at 1% (w/v)) was 40.48 ± 0.85 AU. For the same molecule, the “L* (% of the control group)” value ([1]; formulated at 3% (w/v)) was “+1%”, the “a* (% of the control group)” value ([1]; formulated at 3% (w/v)) was −4% and the “b* (% of the control group)” value ([1]; formulated at 3% (w/v)) was “+3%”. For the same molecule, the “b*” value ([1]; formulated at 3% (w/v)) was 7.73 ± 0.34 AU, the “a*” value ([1]; formulated at 3% (w/v)) was 9.86 ± 0.18 AU and the “L*” value ([1]; formulated at 3% (w/v)) was 41.13 ± 0.54 AU. For the same molecule, the “effect on the chromametric parameters L*, a* and b*” value ([1]; topical application at 1% and 3% (w/v) in an emulsion) was “no significant effect”, the “Inhibition of protein kinase A activity” value (Protein kinase A) was 9.1% and the “Enzymatic activity relative to the control (protein kinase A)” value (Protein kinase A; cAMP 3 μM, histone H1 200 μg/ml, 20 minutes at 30° C.) was 90.9 ± 8.4%. For the same molecule, the “Activity relative to the control (percentage of specific binding)” value (MC1R receptors; at 0.1 mg/ml) was 100.80 ± 0.55%, the inhibition at 100 µg/mL (MC1R receptors; at 0.1 mg/ml, read-out: Inhibition of specific binding by the test products) was 0% and the “Activity relative to the control (percentage of specific binding)” value (MC1R receptors; at 1 mg/ml) was 96.30 ± 4.16%. For the same molecule, the inhibition at 1000 µg/mL (MC1R receptors; at 1 mg/ml, read-out: Inhibition of specific binding by the test products) was 3.7%, the “displacement of the specific binding of the ligand [125I]NDP-α-MSH” value (MC1R receptors; at the test concentrations (0.1 mg/ml and 1 mg/ml)) was “neither arbutin nor kojic acid, which are the reference depigmenting compounds, displaces the specific binding” and the inhibition at 40 µg/mL ([2]; Mus musculus, B16-F1, at 40 μg/ml, read-out: Inhibition of extracellular melanin production) was 47%. For the same molecule, the Extracellular melanin ([2]; at 40 μg/ml) was 23 ± 6 µg/mL.

For `Oc1ccc(O)cc1` [Hydroquinone, hydroquinone], the “L* (% of the control group)” value ([1]; formulated at 0.1% (w/v)) was −9%, the “a* (% of the control group)” value ([1]; formulated at 0.1% (w/v)) was 0% and the “b* (% of the control group)” value ([1]; formulated at 0.1% (w/v)) was “+3%”. The “b*” value ([1]; formulated at 0.1% (w/v)) was 7.73 ± 0.03 AU, the “a*” value ([1]; formulated at 0.1% (w/v)) was 10.19 ± 1.21 AU and the “L*” value ([1]; formulated at 0.1% (w/v)) was 40.59 ± 2.41 AU. The “effect on the chromametric parameters L*, a* and b*” value ([1]; topical application at 0.1% (w/v) in an emulsion) was “no significant effect”, the inhibition at 5 µg/mL ([2]; Mus musculus, B16-F1, at 5 μg/ml, read-out: Inhibition of extracellular melanin production) was 85% and the Extracellular melanin ([2]; at 5 μg/ml) was 7 ± 1 µg/mL.
